Consider 34 molecules from patent US20230003721A1, “MITOTHERAPEUTICS FOR THE TREATMENT OF BRAIN DISORDERS” (The University of Florida Research Foundation, Inc., priority 2019, published 2023).

The subject of assay [1] is primary neurons. The experiment in a line: CellTiter-Glo luminescence-based ATP assay. It counts as cell-based, mouse. The settings on record: for ATP: ATP orthogonal screen, 24 h; for EC50 / Emax: Mus musculus, Primary neuron, dose response; for EC50: 15 concentrations from 6 nM to 100 uM; for Emax: maximal percent increase relative to in-plate DMSO controls, read-out: ATP (Effect-size). In outline:
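Primary neurons treated from DIV13 for 24 h with compound or DMSO. After part of the medium was removed, CellTiter-Glo reagent was added; plates were shaken 10 min at 200 rpm, kept 2 min in the dark at room temperature, and luminescence read as total ATP.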

Assay [2] has as its system primary neurons. Description: TMRM fluorescence assay of inner mitochondrial membrane potential (ΔΨm). Conditions: for TMRM Primary: primary screen; for TMRM Primary / TMRM Rescreen: 24 h; for Emax / EC50: Mus musculus, Primary neuron; for Emax: read-out: TMRM (Effect-size); for EC50: read-out: TMRM-EC50.

Counter-ions that a name gives are not always drawn.

In the assay on primary neurons [1], `COCCOC(=O)C1=C(C)NC(C)=C(C(=O)OC(C)C)C1c1cccc([N+](=O)[O-])c1` (stereo not shown) [nimodipine] yielded an ATP of 6.53 Z-scores. Also, the “TMRM Primary” value in the assay with primary neurons [2] (12.5 μM) stood at 4.40 Z-scores. For the same molecule, the “TMRM Rescreen” value in the assay on primary neurons [2] stood at 3.98 Z-scores.
With `CNCCC=C1c2ccccc2CCc2ccccc21` [nortriptyline hydrochloride], in the assay with primary neurons [1], the ATP is given as 5.66 Z-scores, the EC50 was determined as 200 nM and the Emax was 16.5%. In the assay on primary neurons [2], the Emax was found to be 21%, the EC50 was 550 nM and the “TMRM Rescreen” value is 5.25 Z-scores. Besides, the “TMRM Primary” value with primary neurons [2] (12.5 μM) is 3.77 Z-scores.
With `CCCCCCCCCCC[C@@H](C[C@@H]1OC(=O)[C@H]1CCCCCC)OC(=O)[C@H](CC(C)C)NC=O` [orlistat], the ATP in the assay with primary neurons [1] is recorded as 2.36 Z-scores. The “TMRM Primary” value in the assay with primary neurons [2] (12.5 μM) worked out at 3.43 Z-scores. Further, the “TMRM Rescreen” value in the assay on primary neurons [2] was determined as 1.56 Z-scores.
Taken in the same sequence, the figures for `Clc1ccc(CO/N=C(\Cn2ccnc2)c2ccc(Cl)cc2Cl)c(Cl)c1` [oxiconazole nitrate] were 5.76 Z-scores, 3.08 Z-scores and 3.28 Z-scores.
As for `Fc1ccc([C@@H]2CCNC[C@H]2COc2ccc3c(c2)OCO3)cc1` [paroxetine hydrochloride], in the assay on primary neurons [1], the ATP was determined as 4.41 Z-scores. In the assay on primary neurons [2] (12.5 μM), the “TMRM Primary” value was 3.53 Z-scores. Further, the “TMRM Rescreen” value with primary neurons [2] is 3.26 Z-scores.
Taken in the same sequence, the figures for `CC(C)(C)NC[C@H](O)COc1ccccc1C1CCCC1` [penbutolol sulfate] were 3.39 Z-scores, 3.16 Z-scores and 5.35 Z-scores.
The like results for `C/C(=C\CO)CCC[C@H](C)CCC[C@H](C)CCCC(C)C` [phytol] were, in that order, 4.63 Z-scores, 3.42 Z-scores and 2.70 Z-scores.
Taken in the same sequence, the figures for `CC[N+]1(C)CCCC(OC(=O)C(O)(c2ccccc2)c2ccccc2)C1` (stereo not shown) [pipenzolate bromide] were 3.45 Z-scores, 3.14 Z-scores and 7.09 Z-scores.
In the assay on primary neurons [1], `CC(=O)c1ccc2c(c1)N(CCCN1CCC(CCO)CC1)c1ccccc1S2` [piperacetazine] yielded an ATP of 5.80 Z-scores. In the assay with primary neurons [2] (12.5 μM), the “TMRM Primary” value was found to be 5.30 Z-scores. Also, the “TMRM Rescreen” value with primary neurons [2] worked out at 5.01 Z-scores.
The like results for `CCN1CCCC(OC(=O)C(c2ccccc2)c2ccccc2)C1` (stereo not shown) [piperidolate hydrochloride] were, in that order, 5.72 Z-scores, 3.58 Z-scores and 3.76 Z-scores.
The like results for `CCCCOc1ccc(OCCCN2CCOCC2)cc1` [pramoxine hydrochloride] were, in that order, −1.97 Z-scores, 2.93 Z-scores and −4.72 Z-scores.
For `OC(CCN1CCCC1)(c1ccccc1)C1CCCCC1` (stereo not shown) [procyclidine hydrochloride], in the assay with primary neurons [1], the ATP turned out to be 7.14 Z-scores; the midpoint of the response, the EC50, lay at 240 nM; the Emax came out at 18.7%. Further, in the assay with primary neurons [2], the Emax was found to be 23.3%, the EC50 turned out to be 850 nM and the “TMRM Rescreen” value was 6.91 Z-scores. In the assay with primary neurons [2] (12.5 μM), the “TMRM Primary” value came to 4.55 Z-scores.
`CN(C)CCCN1c2ccccc2Sc2ccccc21` [promazine hydrochloride] showed an ATP in the assay on primary neurons [1] of 4.76 Z-scores. Further, in the assay on primary neurons [2] (12.5 μM), the “TMRM Primary” value is on record as 3.81 Z-scores. For the same molecule, the “TMRM Rescreen” value in the assay with primary neurons [2] is on record as 4.04 Z-scores.
The like results for `CCCNCC(O)COc1ccccc1C(=O)CCc1ccccc1` (stereo not shown) [propafenone hydrochloride] were, in that order, 5.18 Z-scores, 3.75 Z-scores and 5.04 Z-scores.
Taken in the same sequence, the figures for `CCCOc1ccc(C(=O)OCCN(CC)CC)cc1N` [proparacaine hydrochloride] were 4.11 Z-scores, 3.43 Z-scores and 4.65 Z-scores.
For the molecule `CCc1nc(N)nc(N)c1-c1ccc(Cl)cc1` [pyrimethamine], the ATP with primary neurons [1] turned out to be 6.54 Z-scores. In the assay on primary neurons [2] (12.5 μM, 4 h), the “hit in TMRM primary screen when assayed at 4 h” value is “pyrimethamine*”. Besides, the “TMRM Primary” value in the assay on primary neurons [2] (12.5 μM) is listed as 3.43 Z-scores. Moreover, the “TMRM Rescreen” value in the assay on primary neurons [2] was 4.00 Z-scores.
`C=C[C@H]1CN2CC[C@H]1C[C@H]2[C@H](OC(=O)OCC)c1ccnc2ccc(OC)cc12` [quinine ethyl carbonate] had an ATP with primary neurons [1] of 3.60 Z-scores. For the same molecule, the “TMRM Primary” value in the assay with primary neurons [2] (12.5 μM) is listed as 4.64 Z-scores. Also, the “TMRM Rescreen” value in the assay with primary neurons [2] came to 6.26 Z-scores.
Regarding `COC(=O)[C@H]1[C@H]2C[C@H]3c4[nH]c5ccccc5c4CCN3C[C@H]2CC[C@@H]1O` [rauwolscine hydrochloride], in the assay with primary neurons [1], the ATP is 8.40 Z-scores, a half-maximal effect (EC50) was put at 1000 nM and the Emax turned out to be 20.9%. Besides, in the assay on primary neurons [2], the Emax was 29.4%, the EC50 worked out at 4580 nM and the “TMRM Rescreen” value came to 8.77 Z-scores. In addition, the “TMRM Primary” value with primary neurons [2] (12.5 μM) amounted to 4.30 Z-scores.
With `COC(=O)[C@H]1[C@H]2C[C@@H]3c4[nH]c5cc(OC)ccc5c4CCN3C[C@H]2C[C@@H](OC(=O)c2cc(OC)c(OC)c(OC)c2)[C@@H]1OC` [reserpine], in the assay with primary neurons [1], the ATP turned out to be 5.29 Z-scores; the midpoint of the response, the EC50, lay at 120 nM; the Emax turned out to be 20.5%. Moreover, in the assay with primary neurons [2], the Emax worked out at 22.5%, the EC50 amounted to 640 nM and the “TMRM Rescreen” value was determined as 7.89 Z-scores. In the assay with primary neurons [2] (12.5 μM), the “TMRM Primary” value was 7.44 Z-scores.
With `Cc1nc2sccn2c(=O)c1CCN1CCC(=C(c2ccc(F)cc2)c2ccc(F)cc2)CC1` [ritanserin], the ATP in the assay with primary neurons [1] worked out at 4.40 Z-scores. The “TMRM Primary” value with primary neurons [2] (12.5 μM) stood at 5.25 Z-scores. Moreover, in the assay with primary neurons [2], the “TMRM Rescreen” value is reported as 5.83 Z-scores.
Regarding `C=C[C@](C)(O)CC[C@@H]1[C@@]2(C)CCCC(C)(C)[C@@H]2CC[C@@]1(C)O` [sclareol], the ATP in the assay with primary neurons [1] was determined as 4.64 Z-scores. The “TMRM Primary” value in the assay on primary neurons [2] (12.5 μM) was determined as 2.80 Z-scores. Moreover, the “TMRM Rescreen” value with primary neurons [2] is reported as 5.41 Z-scores.
`CN[C@H]1CC[C@@H](c2ccc(Cl)c(Cl)c2)c2ccccc21` [sertraline hydrochloride]: in the assay with primary neurons [1], the ATP is reported as 4.82 Z-scores. Moreover, the “TMRM Primary” value with primary neurons [2] (12.5 μM) is listed as 3.42 Z-scores. In addition, in the assay with primary neurons [2], the “TMRM Rescreen” value was determined as 4.15 Z-scores.
Taken in the same sequence, the figures for `C1CCN2C[C@@H]3C[C@@H](CN4CCCC[C@@H]34)[C@H]2C1` [sparteine sulfate] were 2.92 Z-scores, 2.65 Z-scores and 1.95 Z-scores.
Taken in the same sequence, the figures for `COc1ccc(-n2nc(CCC(=O)N(C)O)cc2-c2ccc(Cl)cc2)cc1` [tepoxalin] were 6.89 Z-scores, 4.36 Z-scores and 3.75 Z-scores.
Taken in the same sequence, the figures for `CC(C)N1CCN(c2ccc(OCC3COC(Cn4cncn4)(c4ccc(Cl)cc4Cl)O3)cc2)CC1` (stereo not shown) [terconazole] were 2.82 Z-scores, 5.15 Z-scores and 5.95 Z-scores.
In the case of `CN1CCN(CC/C=C2/c3ccccc3Sc3ccc(S(=O)(=O)N(C)C)cc32)CC1` [thiothixene], the ATP in the assay with primary neurons [1] is recorded as 3.80 Z-scores. Moreover, the “TMRM Primary” value in the assay on primary neurons [2] (12.5 μM) is 3.08 Z-scores. The “TMRM Rescreen” value in the assay on primary neurons [2] was determined as 3.38 Z-scores.
On to `COc1ccc(CN(CCN(C)C)c2ncccn2)cc1` [thonzylamine hydrochloride], for which the ATP in the assay on primary neurons [1] is recorded as 5.17 Z-scores. The “TMRM Primary” value with primary neurons [2] (12.5 μM) turned out to be 3.16 Z-scores. Besides, the “TMRM Rescreen” value with primary neurons [2] was determined as 3.21 Z-scores.
Taken in the same sequence, the figures for `CN(C)c1cc(NC(=O)CNC(C)(C)C)c(O)c2c1C[C@H]1C[C@H]3[C@H](N(C)C)C(O)=C(C(N)=O)C(=O)[C@@]3(O)C(O)=C1C2=O` [tigecycline] were 4.97 Z-scores, 3.91 Z-scores and 5.95 Z-scores.
Taken in the same sequence, the figures for `CCNC1(c2cccs2)CCCCC1=O.Cl` (stereo not shown) [tiletamine hydrochloride] were 6.27 Z-scores, 3.31 Z-scores and 4.20 Z-scores.
The like results for `Cc1ccc(C(=O)C(C)CN2CCCCC2)cc1` (stereo not shown) [tolperisone hydrochloride] were, in that order, 5.49 Z-scores, 3.57 Z-scores and 3.67 Z-scores.
Consider `CN(C)CCOc1ccc(/C(=C(/CCCl)c2ccccc2)c2ccccc2)cc1` [toremifene citrate], for which the ATP with primary neurons [1] came to 3.29 Z-scores. Further, the “TMRM Primary” value in the assay with primary neurons [2] (12.5 μM) worked out at 3.31 Z-scores. For the same molecule, the “TMRM Rescreen” value in the assay on primary neurons [2] was 7.05 Z-scores.
Taken in the same sequence, the figures for `CSc1nc2cc(Cl)c(Oc3cccc(Cl)c3Cl)cc2[nH]1` [triclabendazole] were 3.97 Z-scores, 3.30 Z-scores and 3.61 Z-scores.
Take `OC(CCN1CCCCC1)(c1ccccc1)C1CCCCC1` (stereo not shown) [trihexyphenidyl hydrochloride]: in the assay with primary neurons [1], the ATP is recorded as 5.95 Z-scores, the response was half-maximal at 170 nM (EC50) and the Emax came out at 17.8%. In addition, in the assay on primary neurons [2], the Emax was 20%, the EC50 was 3200 nM and the “TMRM Rescreen” value came to 7.08 Z-scores. The “TMRM Primary” value with primary neurons [2] (12.5 μM) amounted to 6.07 Z-scores.
As to `CC(CN(C)C)CN1c2ccccc2CCc2ccccc21` (stereo not shown) [trimipramine maleate], in the assay on primary neurons [1], the ATP was 5.24 Z-scores, the EC50 was determined as 180 nM and the Emax was 16.4%. Also, in the assay on primary neurons [2], the Emax was 20%, the EC50 came out at 360 nM and the “TMRM Rescreen” value was 5.16 Z-scores. The “TMRM Primary” value with primary neurons [2] (12.5 μM) was 5.18 Z-scores.
